Results reported in patent US20260266848A1, “COMPOSITIONS AND METHODS FOR DIAGNOSING AND TREATING DYSTONIA” (Duke University, priority 2023, published 2026).

System: WT MEF EVs
Assay: Quantitative LC-MS/MS proteomics of EVs from ISRIB-treated WT MEF cultures
Type: cell-based, mouse
Set-up: key to ISRIB and DYT Parallel Direction / ISRIB and DYT Parallel Direction, Ctdsp1 / ISRIB and DYT Parallel Direction, Pcdh19 / ISRIB and DYT Parallel Direction, Tspan7 / ISRIB and DYT Parallel Direction, Myo1e / ISRIB and DYT Parallel Direction, Plpp3 / ISRIB and DYT Parallel Direction, Sh3bp4 / ISRIB and DYT Parallel Direction, Dnajc7 / ISRIB and DYT Parallel Direction, Drg1 / ISRIB and DYT Parallel Direction, Maea: YES = protein abundance effect similar to DYT/WT

## O=C(COc1ccc(Cl)cc1)NC1CCC(NC(=O)COc2ccc(Cl)cc2)CC1 (stereo not shown) [ISRIB, reference compound]
50 nM, 24 h, p<0.05
  genotype-disrupted proteins (n=363) reproduced by ISRIB: 7%
50 nM, 24 h, p<0.05, of 1974 proteins
  EV proteins disrupted by ISRIB treatment of WT cells: 5%
EV protein Brd4 (Q9ESU6)
  WT + ISRIB/WT Cohen's d, Brd4: 0.37
EV protein Cdk11b (P24788)
  WT + ISRIB/WT Cohen's d, Cdk11b: 4.28
EV protein Cfdp1 (O88271)
  WT + ISRIB/WT Cohen's d, Cfdp1: 8.58
EV protein Cstf1 (Q99LC2)
  WT + ISRIB/WT Cohen's d, Cstf1: 1.34
EV protein Ctdsp1 (P58466)
  WT + ISRIB/WT Cohen's d, Ctdsp1: −10.61
EV protein Ctdsp1 (P58466), WT + ISRIB vs WT
  ISRIB and DYT Parallel Direction, Ctdsp1: YES
EV protein Dcaf8 (Q8N7N5)
  WT + ISRIB/WT Cohen's d, Dcaf8: 0.84
EV protein Dnajc7 (Q9QYI3)
  WT + ISRIB/WT Cohen's d, Dnajc7: −2.37
EV protein Dnajc7 (Q9QYI3), WT + ISRIB vs WT
  ISRIB and DYT Parallel Direction, Dnajc7: YES
EV protein Drg1 (P32233)
  WT + ISRIB/WT Cohen's d, Drg1: −1.58
EV protein Drg1 (P32233), WT + ISRIB vs WT
  ISRIB and DYT Parallel Direction, Drg1: YES
EV protein Edil3 (O35474)
  WT + ISRIB/WT Cohen's d, Edil3: 3.24
EV protein Grwd1 (Q810D6)
  WT + ISRIB/WT Cohen's d, Grwd1: 4.92
EV protein Heatr3 (Q8BQM4)
  WT + ISRIB/WT Cohen's d, Heatr3: 1.40
EV protein Hmga2 (P52927)
  WT + ISRIB/WT Cohen's d, Hmga2: 0.21
EV protein Kntc1 (Q8C3Y4)
  WT + ISRIB/WT Cohen's d, Kntc1: 0.31
EV protein Lpar6 (Q8BMC0)
  WT + ISRIB/WT Cohen's d, Lpar6: −1.25
EV protein Lsm4 (Q9QXA5)
  WT + ISRIB/WT Cohen's d, Lsm4: 0.61
EV protein Maea (Q4VC33)
  WT + ISRIB/WT Cohen's d, Maea: −2.82
EV protein Maea (Q4VC33), WT + ISRIB vs WT
  ISRIB and DYT Parallel Direction, Maea: YES
EV protein Myo1e (E9Q634)
  WT + ISRIB/WT Cohen's d, Myo1e: −1.56
EV protein Myo1e (E9Q634), WT + ISRIB vs WT
  ISRIB and DYT Parallel Direction, Myo1e: YES
EV protein Naa50 (Q6PGB6)
  WT + ISRIB/WT Cohen's d, Naa50: 1.03
EV protein Ndrg1 (Q62433)
  WT + ISRIB/WT Cohen's d, Ndrg1: 1.14
EV protein P3h4 (Q8K2B0)
  WT + ISRIB/WT Cohen's d, P3h4: 1.07
EV protein Pacsin3 (Q99JB8)
  WT + ISRIB/WT Cohen's d, Pacsin3: −2.60
EV protein Pcdh19 (Q80TF3)
  WT + ISRIB/WT Cohen's d, Pcdh19: −2.26
EV protein Pcdh19 (Q80TF3), WT + ISRIB vs WT
  ISRIB and DYT Parallel Direction, Pcdh19: YES
EV protein Plpp3 (Q99JY8)
  WT + ISRIB/WT Cohen's d, Plpp3: 4.49
EV protein Plpp3 (Q99JY8), WT + ISRIB vs WT
  ISRIB and DYT Parallel Direction, Plpp3: YES
EV protein Rbm17 (Q8JZX4)
  WT + ISRIB/WT Cohen's d, Rbm17: 0.36
EV protein Sbno1 (Q689Z5)
  WT + ISRIB/WT Cohen's d, Sbno1: 0.31
EV protein Sec61b (Q9CQS8)
  WT + ISRIB/WT Cohen's d, Sec61b: 3.71
EV protein Sh3bp4 (Q921I6)
  WT + ISRIB/WT Cohen's d, Sh3bp4: −0.29
EV protein Sh3bp4 (Q921I6), WT + ISRIB vs WT
  ISRIB and DYT Parallel Direction, Sh3bp4: YES
EV protein Srrm2 (Q8BTI8)
  WT + ISRIB/WT Cohen's d, Srrm2: 0.17
EV protein Sumo1 (P63166)
  WT + ISRIB/WT Cohen's d, Sumo1: 5.82
EV protein Tes (P47226)
  WT + ISRIB/WT Cohen's d, Tes: 1.50
EV protein Timp3 (P39876)
  WT + ISRIB/WT Cohen's d, Timp3: −3.42
EV protein Tspan7 (Q62283)
  WT + ISRIB/WT Cohen's d, Tspan7: −0.21
EV protein Tspan7 (Q62283), WT + ISRIB vs WT
  ISRIB and DYT Parallel Direction, Tspan7: YES
EV protein Unc119b (Q8C4B4)
  WT + ISRIB/WT Cohen's d, Unc119b: 0.17
ISRIB
  proteins reduced in both mouse and human EVs whose abundance is modulated toward DYT1-like in WT cells (and toward correction by salubrinal in DYT1 cells): 4 of the 7
WT+ISRIB/WT, 50 nM, 24 h
  Acaa1a (ACAA1) EV abundance Cohen's d: −0.8751
  Acaa1a (ACAA1) EV abundance Log2_FC: −0.6305
  Ano6 (ANO6) EV abundance Cohen's d: 0.8352
  Ano6 (ANO6) EV abundance Log2_FC: 0.2496
  Ap1b1 (AP1B1) EV abundance Cohen's d: −0.2382
  Ap1b1 (AP1B1) EV abundance Log2_FC: −0.1813
  Arl8b (ARL8B) EV abundance Cohen's d: −0.8778
  Arl8b (ARL8B) EV abundance Log2_FC: −0.2989
  Bzw2 (BZW2) EV abundance Cohen's d: −0.9186
  Bzw2 (BZW2) EV abundance Log2_FC: 0.7265
  Cryab (CRYAB) EV abundance Cohen's d: −0.1165
  Cryab (CRYAB) EV abundance Log2_FC: 0.1177
  DIst (DLST) EV abundance Cohen's d: 0.6821
  DIst (DLST) EV abundance Log2_FC: −1.897
  Ehd4 (EHD4) EV abundance Cohen's d: −1.159
  Ehd4 (EHD4) EV abundance Log2_FC: −0.09267
  Flna (FLNA) EV abundance Cohen's d: −0.09039
  Flna (FLNA) EV abundance Log2_FC: −0.2341
  Fscn1 (FSCN1) EV abundance Cohen's d: −0.9728
  Fscn1 (FSCN1) EV abundance Log2_FC: −0.2944
  Gart (GART) EV abundance Cohen's d: −0.1196
  Gart (GART) EV abundance Log2_FC: −0.2546
  Hist1h1b (H1-5) EV abundance Cohen's d: −0.4556
  Hist1h1b (H1-5) EV abundance Log2_FC: −0.08676
  Hnrnpc (HNRNPC) EV abundance Cohen's d: 1.199
